Results on nine compounds are retold here after patent US9920053B2, “N-(hetero)aryl-substituted heteroyclic derivatives useful for the treatment of diseases or conditions related to the central nervous system” (CHRONOS THERAPEUTICS LIMITED, priority 2014, dated 2018).

Series [1] concerns the target human dopamine transporter (DAT) (Homo sapiens (Human), UniProt Q01959). Briefly: Scintillation Proximity Assay (SPA) for human DAT binding ([3H]WIN-35,428). Conditions: recombinant human DAT, CHO. The source says:
(§1) Affinity is expressed in terms of inhibition constant (Ki) of the compounds of the invention for DAT, NET and SERT, and it is typically calculated from the IC50 values obtained in competition experiments using Cheng and Prusoff equation (Cheng and Prusoff, Biochem. Pharmacol. 22:3099, 1973). In the context of the present invention pKi values (corresponding to the antilogarithm of Ki) are used instead of Ki; pKi are only estimated to be accurate to about 0.3 log unit.
(§2) Chinese Hamster Ovary (CHO) cells stably expressing either human DAT (hDAT-CHO) or human NET (hNET-CHO) or human SERT (hSERT-CHO) are used for the membrane preparations for radioligand binding assays using Scintillation proximity Assay (SPA) technique. Each cell line is cultured independently in F-12K Nutrient Mixture containing 10% of Fetal Bovine Serum (FBS) supplemented with 450 μg/ml G-418. When cells are at 70-80% of confluence 3 mM Na Butyrate was added to the cell culture medium. After 24 h of incubation, the culture medium was removed and the cells detached with Versene (DAT) or by scraping (NET and SERT). Cell suspension is centrifuged at 41,000 g for 10 minutes at 4° C. The resultant pellets are re-suspended in 15 volumes of Ice-cold buffer (20 mM HEPES, 145 mM NaCl, 5 mM KCl, pH7.3), homogenized using an Ultra Turrax homogeniser and centrifuged as before. The resultant membrane pellets are re-suspended in up to 15 volume of ice-cold buffer, incubated for 20 minutes at 37° C and centrifuged as before at 41,000 g. The final membrane pellets are re-suspended into 5-10 volumes of ice-cold buffer, dispensed into 0.5 ml aliquots and stored at −80° C. until use. Protein concentration for each preparation is determined using Bio-Rad Protein Assay Kit.
(§3) The affinity of the compounds of the invention to the human DAT or NET or SERT transporters is assessed by using the [^3H]WIN-35,428 or [^3H]nisoxetine or [^3H]citalopram binding assays in recombinant human DAT, NET and SERT membranes with the SPA technology. The final assay volume is 50 μL in 384 well plates.
(§4) Briefly, 0.5 μL of test compound in neat DMSO or 0.5 μL of DMSO for total binding (TB) or 0.5 μL of indatraline 1 mM (10 μM final concentration) for non specific binding (NSB) are added to the assay plate. 50 μL of the SPA mixture is added to each well, containing: 30 μg/mL or 10 μg/mL or 25 μg/mL DAT, NET, SERT membranes, respectively; 5 nM [^3H]WIN-35,428 or 5 nM [^3H]nisoxetine or 1 nM [^3H]citalopram, for DAT, NET, SERT assay, respectively; 2.5 mg/mL or 1 mg/mL or 4 mg/mL WGA-PVT SPA beads (PerkinElmer RPNQ0001, for DAT, NET, SERT assay, respectively. All components are added to Assay Buffer (20 mM HEPES pH 7.4, 145 mM NaCl, 5 mM KCl, 0.01% Pluronic F-127). 0.02% BSA was used for DAT binding only. Plates are sealed with Topseal A and centrifuged 1 min, 800 rpm. Plates are loaded into a 1450 Microbeta TriLux (Perkin-Elmer) plate reader and the radioactivity counted after at least 4 hrs or overnight incubation at room temperature. Curve fitting and IC50 estimations are performed using a four parameter model in XLfit (IDBS, Guilford, UK) for Microdoft Excel (Microsoft, Redmond, Wash.).
The potency of the compounds of the invention in blocking the DAT function is measured using an uptake assay in a recombinant CHO cell line expressing human DAT (hDAT-CHO). Potency is measured in terms of pIC50 by testing the compounds of invention for the inhibition of [^3H]-dopamine uptake in DAT-CHO cells using a SPA technology in 384 well format.
Briefly, on the days of the experiment hDAT-CHO cells are detached using Versene and added (75,000 cells/mL) to the SPA Mixture, which contains the following components in Assay Buffer (20 mM HEPES, 145 mM NaCl, 5 mM KCl, 2 mM CaCl2, 1 mM MgCl2 and 1 g/L glucose, pH 7.3): 0.02% w/v of Pluronic F127, 2 mg/mL SPA Imaging beads (RPNQ0260, PerkinElmer), 10 μM pargyline and 80 nM of [^3H]-dopamine. […]

Series [2] deals with human norepinephrine transporter (NET) (Homo sapiens (Human), UniProt P23975). Briefly: Scintillation Proximity Assay (SPA) for human NET binding ([3H]nisoxetine). Conditions: recombinant human NET, CHO membranes.
Source text: as §1, §2, §3, §4

Series [3] deals with human serotonin transporter (SERT) (Homo sapiens (Human), UniProt P31645). Briefly: Scintillation Proximity Assay (SPA) for human SERT binding ([3H]citalopram). Particulars: recombinant human SERT, CHO membranes.
Source text: as §1, §2, §3, §4
(SPA uses beads or plates that emit light when radiolabelled molecules are held near them.)

Series [4] deals with human ERG potassium channel (hERG) (Homo sapiens (Human), UniProt Q12809). Briefly: hERG channel tail current recording using Rapid ICE automated patch-clamp. Type of series: cell-based. Conditions: HEK293 cells stably transfected with hERG. The procedure:
The potency of the compounds of the invention in inhibiting human ERG potassium channel (hERG) tail current is assessed in a recombinant HEK293 cell line stably transfected with hERG cDNA using Rapid ICE™ (Rapid Ion Channel Electrophysiology) assay. Rapid ICE™ is an automated patch-clamp assay utilizing the PatchXpress 7000A system (Molecular Devices Corporation) or the QPatch HTX system (Sophion Bioscience A/S).
Briefly cells are cultivated for 24 to 72 hours before recordings in minimum essential medium supplemented with 10% FBS, 1% non-essential amino acids, 1% sodium pyruvate, 2 mM L-glutamine. The day of the experiment cells are detached with TrypLE and prepared to be loaded on the instrument. For PatchXpress cells are finally resuspended in 150 μl of Extracellular Buffer whereas for QPatch cells are resuspended in 7 ml Serum-Free Media containing 25 mM Hepes and Soybean trypsin inhibitor and immediately placed in the cell storage tank of the machine. The composition of the Extracellular Buffer is (mM): NaCl 137; KCl 4; CaCl2 1.8; MgCl2 1.0; D-glucose 10; N 2 hydroxyethylpiperazine-N′-2-ethanesulfonic acid (HEPES) 10; pH 7.4 with 1 M NaOH. The composition of the pipette solution is (mM): KCl 130; MgCl2 1.0; Ethylene glycol-bis(β-aminoethyl ether)-N,N,N′,N′-tetraacetic acid (EGTA) 5; MgATP 5; HEPES 10; pH 7.2 with 1 M KOH. The voltage protocol includes the following steps: step from −80 mV to −50 mV for 200 ms, +20 mV for 4.8 s, step to −50 mV for 5 s then step to the holding potential of −80 mV. Compounds of the invention are dissolved in DMSO and diluted in Extracellular Buffer to achieve final test concentrations (0.1, 1 and 10 μM) in 0.1% DMSO. The voltage protocol is run and recorded continuously during the experiment. The vehicle, corresponding to 0.1% DMSO in Extracellular Buffer, is then applied for 3 min followed by the test substance in triplicate. The standard combined exposure time is 5 min. The average of tail current amplitude values recorded from 4 sequential voltage pulses is used to calculate for each cell the effect of the test substance by calculating the residual current (% control) compared with vehicle pre-treatment. Data are reported as % inhibition for each concentration tested and IC50 values are estimated using DataXpress or QPatch software. At least two cells are tested, more if results diverge.
Background: hERG is a cardiac potassium channel; its block is linked to QT prolongation.

Sequence of human dopamine transporter (DAT) (Q01959 whole entry): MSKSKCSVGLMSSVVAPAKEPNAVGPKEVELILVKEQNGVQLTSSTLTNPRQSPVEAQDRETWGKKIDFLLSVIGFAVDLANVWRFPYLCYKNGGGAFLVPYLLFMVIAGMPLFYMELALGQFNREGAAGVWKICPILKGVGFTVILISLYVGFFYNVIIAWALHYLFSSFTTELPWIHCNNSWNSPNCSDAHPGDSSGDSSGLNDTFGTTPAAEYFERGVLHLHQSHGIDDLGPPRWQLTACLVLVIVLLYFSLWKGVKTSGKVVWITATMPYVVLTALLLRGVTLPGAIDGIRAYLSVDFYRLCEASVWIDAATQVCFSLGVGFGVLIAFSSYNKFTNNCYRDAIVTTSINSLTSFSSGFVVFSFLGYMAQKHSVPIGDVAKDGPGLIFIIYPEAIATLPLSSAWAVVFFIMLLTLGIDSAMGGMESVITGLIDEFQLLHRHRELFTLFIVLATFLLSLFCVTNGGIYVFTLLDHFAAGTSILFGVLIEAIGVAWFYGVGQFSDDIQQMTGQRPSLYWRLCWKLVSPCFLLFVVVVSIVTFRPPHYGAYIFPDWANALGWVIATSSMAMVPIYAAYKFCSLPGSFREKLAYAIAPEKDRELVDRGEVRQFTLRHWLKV
Sequence of human ERG potassium channel (hERG) (Q12809 whole entry): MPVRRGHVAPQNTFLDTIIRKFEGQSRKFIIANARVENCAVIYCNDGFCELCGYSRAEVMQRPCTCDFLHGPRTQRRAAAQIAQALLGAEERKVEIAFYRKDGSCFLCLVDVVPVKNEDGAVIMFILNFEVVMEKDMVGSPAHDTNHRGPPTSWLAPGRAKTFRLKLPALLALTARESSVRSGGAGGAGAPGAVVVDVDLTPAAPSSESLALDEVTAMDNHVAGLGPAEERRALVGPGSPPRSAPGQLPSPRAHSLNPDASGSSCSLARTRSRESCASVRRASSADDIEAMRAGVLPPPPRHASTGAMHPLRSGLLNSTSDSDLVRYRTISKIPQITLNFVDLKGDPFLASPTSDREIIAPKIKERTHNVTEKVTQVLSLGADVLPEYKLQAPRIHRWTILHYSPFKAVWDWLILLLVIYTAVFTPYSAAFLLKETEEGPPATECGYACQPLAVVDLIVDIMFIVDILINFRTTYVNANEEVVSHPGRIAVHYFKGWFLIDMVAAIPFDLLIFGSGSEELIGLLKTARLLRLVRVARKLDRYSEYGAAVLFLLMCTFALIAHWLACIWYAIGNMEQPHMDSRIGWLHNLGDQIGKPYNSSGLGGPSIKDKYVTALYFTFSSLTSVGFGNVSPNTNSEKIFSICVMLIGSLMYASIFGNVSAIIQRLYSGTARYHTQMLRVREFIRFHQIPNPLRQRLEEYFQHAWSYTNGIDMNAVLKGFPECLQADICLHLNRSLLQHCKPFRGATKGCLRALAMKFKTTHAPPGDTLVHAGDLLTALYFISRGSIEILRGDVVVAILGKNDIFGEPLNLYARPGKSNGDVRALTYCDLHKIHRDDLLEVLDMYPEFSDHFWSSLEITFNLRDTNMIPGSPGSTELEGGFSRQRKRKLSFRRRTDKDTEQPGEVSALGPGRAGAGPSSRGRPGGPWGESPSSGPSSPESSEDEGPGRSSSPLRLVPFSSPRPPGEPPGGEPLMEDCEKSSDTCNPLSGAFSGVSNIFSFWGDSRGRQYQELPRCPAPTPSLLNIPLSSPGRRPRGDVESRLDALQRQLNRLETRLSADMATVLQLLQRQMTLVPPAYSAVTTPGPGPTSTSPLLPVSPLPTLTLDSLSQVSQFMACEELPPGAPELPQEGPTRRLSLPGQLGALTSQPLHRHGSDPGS
Sequence of human serotonin transporter (SERT) (P31645 whole entry): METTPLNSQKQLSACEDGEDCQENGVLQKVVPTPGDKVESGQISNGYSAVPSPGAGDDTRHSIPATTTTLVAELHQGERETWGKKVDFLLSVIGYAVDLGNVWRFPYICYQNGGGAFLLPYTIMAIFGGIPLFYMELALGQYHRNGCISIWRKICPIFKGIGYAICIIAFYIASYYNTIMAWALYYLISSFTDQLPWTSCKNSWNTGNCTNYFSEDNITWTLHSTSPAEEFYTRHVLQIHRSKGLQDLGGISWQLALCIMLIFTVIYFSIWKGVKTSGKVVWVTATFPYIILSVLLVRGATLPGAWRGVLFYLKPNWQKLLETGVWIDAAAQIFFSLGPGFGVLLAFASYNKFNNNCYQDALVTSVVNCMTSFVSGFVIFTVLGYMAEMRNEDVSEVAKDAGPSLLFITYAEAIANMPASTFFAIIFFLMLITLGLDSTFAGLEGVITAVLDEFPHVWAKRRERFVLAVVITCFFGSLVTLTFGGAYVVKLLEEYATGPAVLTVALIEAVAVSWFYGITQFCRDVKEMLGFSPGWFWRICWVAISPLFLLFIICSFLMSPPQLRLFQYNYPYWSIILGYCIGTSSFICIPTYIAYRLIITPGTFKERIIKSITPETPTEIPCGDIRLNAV
Sequence of human norepinephrine transporter (NET) (P23975 whole entry): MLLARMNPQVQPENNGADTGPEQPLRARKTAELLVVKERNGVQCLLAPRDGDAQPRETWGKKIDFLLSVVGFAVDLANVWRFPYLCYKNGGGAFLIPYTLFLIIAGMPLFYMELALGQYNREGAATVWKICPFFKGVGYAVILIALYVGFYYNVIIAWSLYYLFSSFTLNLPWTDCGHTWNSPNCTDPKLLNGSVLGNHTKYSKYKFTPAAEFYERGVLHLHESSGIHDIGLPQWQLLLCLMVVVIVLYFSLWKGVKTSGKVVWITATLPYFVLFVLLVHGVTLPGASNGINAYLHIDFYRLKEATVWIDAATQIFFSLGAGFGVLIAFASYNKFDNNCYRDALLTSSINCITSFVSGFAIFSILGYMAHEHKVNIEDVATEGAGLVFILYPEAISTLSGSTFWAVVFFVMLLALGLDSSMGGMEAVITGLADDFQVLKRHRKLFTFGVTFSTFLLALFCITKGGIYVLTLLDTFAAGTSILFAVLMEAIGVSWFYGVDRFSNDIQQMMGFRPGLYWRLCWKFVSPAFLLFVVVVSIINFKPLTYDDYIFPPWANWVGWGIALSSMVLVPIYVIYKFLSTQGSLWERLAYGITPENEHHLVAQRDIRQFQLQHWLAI

For orientation: IC50 means the concentration that inhibits the measured activity by half. In the case of `OC1(CN2CCC(F)(F)C2)CCN(c2nc(Oc3cccc(F)c3)cc(C(F)(F)F)n2)CC1` [Example 6, 4-[(3,3-difluoropyrrolidin-1-yl)methyl]-1-[4-(3-fluorophenoxy)-6-(trifluoromethyl)pyrimidin-2-yl]piperidin-4-ol], the “pIC50 DAT” value in series [1] was 6.89. Moreover, in series [2], the “pIC50 NET” value is given as 5.94. The IC50 is 32.4 µM in series [3] and > 10 µM in series [4].

Turning to `OC1(CNC2CC2)CCN(c2nc(Oc3cccc(F)c3)cc(C(F)(F)F)n2)CC1` [Example 3, 4-[(cyclopropylamino)methyl]-1-[4-(3-fluorophenoxy)-6-(trifluoromethyl)pyrimidin-2-yl]piperidin-4-ol], the “pIC50 DAT” value in series [1] is 8.13. In series [2], the “pIC50 NET” value was determined as 6.42. The IC50 in series [3] was 21.4 µM. Moreover, the “pIC50 hERG” value in series [4] came to 6.0.

Regarding `CN(CC1(O)CCN(c2nc(Oc3cccc(F)c3)cc(C(F)(F)F)n2)CC1)C1CC1` [Example 4, 4-{[cyclopropyl(methyl)amino]methyl}-1-[4-(3-fluorophenoxy)-6-(trifluoromethyl)pyrimidin-2-yl]piperidin-4-ol], the “pIC50 DAT” value in series [1] is 7.38. In addition, the “pIC50 NET” value in series [2] was 6.19. Moreover, in series [3], the IC50 was > 100 µM. Besides, the “pIC50 hERG” value in series [4] is recorded as 6.1.

In the case of `O=C(NCC1(O)CCN(c2nc(Oc3cccc(F)c3)cc(C(F)(F)F)n2)CC1)c1ccccc1` [Example 26, N-({1-[4-(3-fluorophenoxy)-6-(trifluoromethyl)pyrimidin-2-yl]-4-hydroxypiperidin-4-yl}methyl)benzamide], in series [1], the “pIC50 DAT” value is 7.65. The IC50 in series [2] and in series [3] was > 100 µM each time. Moreover, the “pIC50 hERG” value in series [4] worked out at 5.5.

Turning to `NCC(=O)NCC1(O)CCN(c2nc(Oc3cccc(F)c3)cc(C(F)(F)F)n2)CC1` [Example 29, 2-amino-N-({1-[4-(3-fluorophenoxy)-6-(trifluoromethyl)pyrimidin-2-yl]-4-hydroxypiperidin-4-yl}methyl)acetamide], the “pIC50 DAT” value in series [1] was 8.22. Moreover, in series [2], the “pIC50 NET” value amounted to 5.77. Also, in series [3], the IC50 was 19.1 µM. Also, the “pIC50 hERG” value in series [4] was 5.4.

In the case of `O=C(NCC1(O)CCN(c2nc(Oc3cccc(F)c3)cc(C(F)(F)F)n2)CC1)c1cn[nH]c1` [Example 27, N-({1-[4-(3-fluorophenoxy)-6-(trifluoromethyl)pyrimidin-2-yl]-4-hydroxypiperidin-4-yl}methyl)-1H-pyrazole-4-carboxamide], the “pIC50 DAT” value in series [1] was 7.72. The “pIC50 NET” value in series [2] was 5.65. Moreover, the half-inhibitory concentration (IC50) in series [3] is 34.7 µM. Besides, the “pIC50 hERG” value in series [4] was determined as 5.3.

For the compound `CC(C)C(=O)NCC1(O)CCN(c2nc(Oc3cccc(F)c3)cc(C(F)(F)F)n2)CC1` [Example 21, N-({1-[4-(3-fluorophenoxy)-6-(trifluoromethyl)pyrimidin-2-yl]-4-hydroxypiperidin-4-yl}methyl)-2-methylpropanamide], the “pIC50 DAT” value in series [1] is recorded as 7.84. Further, the “pIC50 NET” value in series [2] was found to be 4.75. Moreover, the 50% inhibitory concentration (IC50) in series [3] is > 100 µM; in series [4], > 10 µM.

On to `CC1CCC(C)N1CC1(O)CCN(c2nc(Oc3cccc(F)c3)cc(C(F)(F)F)n2)CC1` (stereo not drawn) [Example 8, 4-[(2,5-dimethylpyrrolidin-1-yl)methyl]-1-[4-(3-fluorophenoxy)-6-(trifluoromethyl)pyrimidin-2-yl]piperidin-4-ol], for which, in series [1], the “pIC50 DAT” value is recorded as 7.66. For the same compound, in series [2], the “pIC50 NET” value came to 6.29. In addition, in series [3], the IC50 was 6.03 µM. In series [4], the “pIC50 hERG” value was found to be 6.8.

`O=C(NCC1(O)CCN(c2nc(Oc3cccc(F)c3)cc(C(F)(F)F)n2)CC1)c1cnccn1` [Example 28, N-({1-[4-(3-fluorophenoxy)-6-(trifluoromethyl)pyrimidin-2-yl]-4-hydroxypiperidin-4-yl}methyl)pyrazine-2-carboxamide]: the “pIC50 DAT” value in series [1] is reported as 7.86. Further, the “pIC50 NET” value in series [2] was found to be 5.96. The IC50 in series [3] is > 100 µM. In series [4], the “pIC50 hERG” value was 5.5.
